Tested on: MLV
Assay: VRV study on Arginine treatment of PA eluate
Assay type: cell-based, Murine Leukemia Virus
Method: Based on the stability and activity studies reported in Example 1, the most promising viral inactivation methods were further tested for their ability to inactivate viruses. The effectiveness of the viral inactivation was evaluated by doing a spiking study at Bioreliance. Test samples were taken before and after each treatment and analyzed for viral titre. First, VRV study on Arginine treatment was carried out.
Only one virus, MLV, which is a typical model virus used for biological products derived from CHO cell lines such as monoclonal antibody, was used for this study. A total of 7 runs were performed. PA eluate from development runs was used as starting material. Different stock buffers of Arginine at the different pH (pH 4.0, pH 4.75, pH 4.79 and pH 5.5) were used to reach the target pH and concentration. The samples were neutralized using 250 mM Histidine pH 12.0 buffer around pH 6.0 to stop the reaction.
Log reduction values was calculated with respect to the neutralized load sample, a 5 plate large volume plating as well as a standard titration was performed on the t=60 min sample. The neutralized load hold sample was held at 16.0° C. to 20.0° C. for 60 minutes (runs 2, 4 and 6) or 120 minutes (runs 1, 3, 5 and 7).

For N=C(N)NCCC[C@H](N)C(=O)O [Arginine], the log10 reduction factor (Run 2, Arginine concentration (mM) 0.4, pH 4, 60 min) was 4.16 +/− 0.32 log10, the log10 reduction factor (Run 3, Arginine concentration (mM) 0.8, pH 4, 120 min) was 4.10 +/− 0.35 log10 and the log10 reduction factor (Run 4, Arginine concentration (mM) 0.8, pH 4.75, 60 min) was 2.82 +/− 0.4 log10. For the same compound, the log10 reduction factor (Run 5, Arginine concentration (mM) 0.38, pH 4.79, 120 min) was “no reduction”, the log10 reduction factor (Run 6, Arginine concentration (mM) 0, pH 5.5, 60, 120 min) was 0.35 +/− 0.4 log10 and the log10 reduction factor (Run 7, Arginine concentration (mM) 0.8, pH 5.5, 120 min) was “no reduction”.
